# Measurements: patent publication US20220396569A1 (Carmot Therapeutics, Inc., priority 2021, published 2022)
# Biological target: T1, human GLP-1 receptor (Homo sapiens, UniProt P43220)
# T1 construct: expressed in transfected cells
# Assay: GLP-1R cAMP Assay (HitHunter cAMP accumulation)
# Format: cell-based
# Conditions: cAMP accumulation, CHO cells stably overexpressing human GLP-1 receptor, 30 min treatment; read-out: EC50
# Procedure, shortened: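 CHO cells stably expressing human GLP-1R, 10,000 cells/well in HBSS with 10 mM HEPES and 625 μM IBMX, were mixed with anti-cAMP antibody reagent. Compound was applied as a 20-point dose response in triplicate for 30 min. After lysis and overnight detection, luminescence was read and dose-response curves analysed.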
# T1 sequence (P43220 24-463): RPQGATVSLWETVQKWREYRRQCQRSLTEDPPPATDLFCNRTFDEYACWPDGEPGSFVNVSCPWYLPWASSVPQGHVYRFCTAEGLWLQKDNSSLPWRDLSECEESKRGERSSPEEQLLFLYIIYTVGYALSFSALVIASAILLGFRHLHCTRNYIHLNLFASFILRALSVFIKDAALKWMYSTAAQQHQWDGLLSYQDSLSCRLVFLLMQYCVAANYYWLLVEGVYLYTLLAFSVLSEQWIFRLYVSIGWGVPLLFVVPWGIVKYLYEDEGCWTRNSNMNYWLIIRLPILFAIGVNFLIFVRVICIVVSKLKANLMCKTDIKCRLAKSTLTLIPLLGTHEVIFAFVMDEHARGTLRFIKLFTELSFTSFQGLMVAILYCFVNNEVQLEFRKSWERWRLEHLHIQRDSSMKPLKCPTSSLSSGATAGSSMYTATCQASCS
row,SMILES,EC50
1,"CCn1cncc1Cn1c(CN2CC3(CC(Oc4cccc(COc5ccc(Cl)cc5Cl)c4)C3)C2)nc2ccc(C(=O)O)cc21 [Compound 235, 2-[(6-{3-[(2,4-dichlorophenoxy)methyl]phenoxy}-2-azaspiro[3.3]heptan-2-yl)methyl]-1-[(1-ethyl-1H-imidazol-5-yl)methyl]-1H-1,3-benzodiazole-6-carboxylic acid]",50 to 500 nM
2,"O=C(O)c1ccc2nc(CN3CCC(c4cc(F)cc(COc5ccc(Cl)cc5F)c4)C3)n(C[C@@H]3CCO3)c2c1 (stereo partly drawn) [Compound 420, 2-[(3-{3-[(4-chloro-2-fluorophenoxy)methyl]-5-fluorophenyl}pyrrolidin-1-yl)methyl]-1-{[(2S)-oxetan-2-yl]methyl}-1H-1,3-benzodiazole-6-carboxylic acid]",< 50 nM
3,"CCn1cncc1Cn1c(CN2C[C@H](Oc3cccc(COc4ccc(Cl)cc4Cl)c3)[C@@H]2C)nc2ccc(C(=O)O)cc21 [Example 233, 2-(((2S,3S)-3-(3-((2,4-Dichlorophenoxy)methyl)phenoxy)-2-methylazetidin-1-yl)methyl)-1-((1-ethyl-1H-imidazol-5-yl)methyl)-1H-benzo[d]imidazole-6-carboxylic acid]",< 50 nM
4,"Cc1ccc(OCc2cc(Oc3ccc(Cc4nc5ccc(C(=O)O)cc5n4C[C@@H]4CCO4)cn3)ccn2)c(F)c1 [Compound 544, (S)-2-((6-((2-((2-Fluoro-4-methylphenoxy)methyl)pyridin-4-yl)oxy)pyridin-3-yl)methyl)-1-(oxetan-2-ylmethyl)-1H-benzo[d]imidazole-6-carboxylic acid]",< 50 nM
5,O=C(O)c1ccc2nc(CN3CC(Cc4cnc(COc5ccc(Cl)cc5Cl)o4)C3)n(C[C@@H]3CCO3)c2c1 [Compound 191],< 50 nM
6,"N#CCC1(Cn2c(CN3CC[C@H](c4ccnc(COc5ccc(Cl)cc5F)c4)C3)nc3ccc(C(=O)O)cc32)CC1 [Compound 433, 2-{[(3R)-3-{2-[(4-chloro-2-fluorophenoxy)methyl]pyridin-4-yl}pyrrolidin-1-yl]methyl}-1-{[1-(cyanomethyl)cyclopropyl]methyl}-1H-1,3-benzodiazole-6-carboxylic acid]",50 to 500 nM
7,CCn1cncc1Cn1c(CN2CC(=Cc3cccc(COc4ccc(Cl)cc4Cl)c3)C2)nc2ccc(C(=O)O)cc21 [Compound 196],< 50 nM
8,"O=C(O)c1ccc2nc(CN3CC=C(c4nccc(COc5ccc(Cl)cc5F)n4)C3)n(C[C@@H]3CCO3)c2c1 [Example 435, (S)-2-((3-(4-((4-Chloro-2-fluorophenoxy)methyl)pyrimidin-2-yl)-2,5-dihydro-1H-pyrrol-1-yl)methyl)-1-(oxetan-2-ylmethyl)-1H-benzo[d]imidazole-6-carboxylic acid]",< 50 nM
9,"N#CCC1(Cn2c(CN3CC=C(c4nc(COc5ccc(Cl)cc5F)ccc4F)C3)nc3ccc(C(=O)O)cc32)CC1 [Compound 438, 2-[(3-{6-[(4-chloro-2-fluorophenoxy)methyl]-3-fluoropyridin-2-yl}-2,5-dihydro-1H-pyrrol-1-yl)methyl]-1-{[1-(cyanomethyl)cyclopropyl]methyl}-1H-1,3-benzodiazole-6-carboxylic acid]",< 50 nM
10,"O=C(O)c1cc(F)c2nc(CN3CC=C(c4nc(COc5ccc(Cl)cc5F)ccc4F)C3)n(C[C@@H]3CCO3)c2c1 [Compound 437, 2-[(3-{6-[(4-chloro-2-fluorophenoxy)methyl]-3-fluoropyridin-2-yl}-2,5-dihydro-1H-pyrrol-1-yl)methyl]-4-fluoro-1-{[(2S)-oxetan-2-yl]methyl}-1H-1,3-benzodiazole-6-carboxylic acid]",< 50 nM
11,"O=C(O)c1ccc2nc(CN3CC[C@H](c4cccc(COc5ccc(Cl)cc5Cl)c4)C3)n(C[C@@H]3CCO3)c2c1 (single isomer, unassigned) [Example 406]",< 50 nM
12,"N#Cc1ccc(OCc2cccc([C@H]3CCN(Cc4nc5ccc(C(=O)O)cc5n4C[C@@H]4CCO4)C3)c2)c(F)c1 [Compound 415, 2-{[(3R)-3-{3-[(4-cyano-2-fluorophenoxy)methyl]phenyl}pyrrolidin-1-yl]methyl}-1-{[(2S)-oxetan-2-yl]methyl}-1H-1,3-benzodiazole-6-carboxylic acid]",50 to 500 nM
13,"O=C(O)c1ccc2nc(CN3CC=C(c4ccnc(COc5ccc(Cl)cc5Cl)c4)C3)n(C[C@@H]3CCO3)c2c1 [Compound 402, 2-[(3-{2-[(2,4-dichlorophenoxy)methyl]pyridin-4-yl}-2,5-dihydro-1H-pyrrol-1-yl)methyl]-1-{[(2S)-oxetan-2-yl]methyl}-1H-1,3-benzodiazole-6-carboxylic acid]",< 50 nM
14,"CCn1cncc1Cn1c(Cc2ccc(Oc3cccc(COc4ccc(C#N)cc4F)n3)cc2F)nc2ccc(C(=O)O)cc21 [Compound 461, 2-{[4-({6-[(4-cyano-2-fluorophenoxy)methyl]pyridin-2-yl}oxy)-2-fluorophenyl]methyl}-1-[(1-ethyl-1H-imidazol-5-yl)methyl]-1H-1,3-benzodiazole-6-carboxylic acid]",< 50 nM
15,O=C(O)c1ccc2nc(CN3CC=C(c4nc(COc5ccc(Cl)cc5F)ccc4F)C3)n(C[C@@H]3CCO3)c2c1 [Compound 436],< 50 nM
16,"O=C(O)c1ccc2nc(CN3CC(Oc4ccnc(COc5ccc(Cl)cc5Cl)c4)C3)n(Cc3cnco3)c2c1 [Example 219, 2-((3-((2-((2,4-Dichlorophenoxy)methyl)pyridin-4-yl)oxy)azetidin-1-yl)methyl)-1-(oxazol-5-ylmethyl)-1H-benzo[d]imidazole-6-carboxylic acid]",< 50 nM
17,"O=C(O)c1ccc2nc(CN3CC[C@H](c4cccc(COc5ccc(Cl)cc5F)c4)C3)n(C[C@@H]3CCO3)c2c1 (single isomer, unassigned) [Example 412]",50 to 500 nM
18,"N#Cc1ccc(OCc2cc(Oc3ccc(Cc4nc5c(F)cc(C(=O)O)cc5n4C[C@@H]4CCO4)c(F)c3)ccn2)c(F)c1 [Compound 537, 2-{[4-({2-[(4-cyano-2-fluorophenoxy)methyl]pyridin-4-yl}oxy)-2-fluorophenyl]methyl}-4-fluoro-1-{[(2S)-oxetan-2-yl]methyl}-1H-1,3-benzodiazole-6-carboxylic acid]",< 50 nM
19,"N#CCC1(Cn2c(CN3CC=C(c4ccc(F)c(COc5ccc(Cl)cc5F)n4)C3)nc3c(F)cc(C(=O)O)cc32)CC1 [Compound 430, 2-[(3-{6-[(4-chloro-2-fluorophenoxy)methyl]-5-fluoropyridin-2-yl}-2,5-dihydro-1H-pyrrol-1-yl)methyl]-1-{[1-(cyanomethyl)cyclopropyl]methyl}-4-fluoro-1H-1,3-benzodiazole-6-carboxylic acid]",< 50 nM
20,"N#Cc1ccc(OCc2ccc(F)c(C3CCN(Cc4nc5ccc(C(=O)O)cc5n4C[C@@H]4CCO4)C3)n2)c(F)c1 (stereo partly drawn) [Compound 520, 2-[(3-{6-[(4-cyano-2-fluorophenoxy)methyl]-3-fluoropyridin-2-yl}pyrrolidin-1-yl)methyl]-1-{[(2S)-oxetan-2-yl]methyl}-1H-1,3-benzodiazole-6-carboxylic acid]",< 50 nM

# Next, values leading:
row,EC50,SMILES
1,< 50 nM,"N#Cc1ccc(OCc2nc([C@@H]3CCN(Cc4nc5c(F)cc(C(=O)O)cc5n4C[C@@H]4CCO4)C3)ccc2F)c(F)c1 [Compound 454, 2-{[(3R)-3-{6-[(4-cyano-2-fluorophenoxy)methyl]-5-fluoropyridin-2-yl}pyrrolidin-1-yl]methyl}-4-fluoro-1-{[(2S)-oxetan-2-yl]methyl}-1H-1,3-benzodiazole-6-carboxylic acid]"
2,< 50 nM,"O=C(O)c1ccc2nc(CN3CC(Oc4cnc(COc5ccc(Cl)cc5Cl)o4)C3)n(C[C@@H]3CCO3)c2c1 [Example 213, (S)-2-((3-((2-((2,4-Dichlorophenoxy)methyl)oxazol-5-yl)oxy)azetidin-1-yl)methyl)-1-(oxetan-2-ylmethyl)-1H-benzo[d]imidazole-6-carboxylic acid]"
3,< 50 nM,"O=C(O)c1ccc2nc(CN3CC=C(c4ccc(F)c(COc5ccc(Cl)cc5Cl)c4)C3)n(Cc3cnco3)c2c1 [Compound 387, 2-[(3-{3-[(2,4-dichlorophenoxy)methyl]-4-fluorophenyl}-2,5-dihydro-1H-pyrrol-1-yl)methyl]-1-[(1,3-oxazol-5-yl)methyl]-1H-1,3-benzodiazole-6-carboxylic acid]"
4,< 50 nM,O=C(O)c1ccc2nc(CN3CC(Oc4ccnc(COc5ccc(F)cc5F)n4)C3)n(C[C@@H]3CCO3)c2c1 [Compound 550]
5,< 50 nM,"CCn1cncc1Cn1c(CN2CC(Cc3cnc(COc4ccc(Cl)cc4C#N)o3)C2)nc2ccc(C(=O)O)cc21 [Compound 167, 2-{[3-({2-[(4-chloro-2-cyanophenoxy)methyl]-1,3-oxazol-5-yl}methyl)azetidin-1-yl]methyl}-1-[(1-ethyl-1H-imidazol-5-yl)methyl]-1H-1,3-benzodiazole-6-carboxylic acid]"
6,< 50 nM,O=C(O)c1ccc2nc(CN3CCC(c4ccnc(COc5ccc(Cl)cc5Cl)c4)C3)n(C[C@@H]3CCO3)c2c1 (some centres unmarked) [Compound 399]
7,< 50 nM,"N#CCC1(Cn2c(CN3CC=C(c4ccc(F)c(COc5ccc(C#N)cc5F)n4)C3)nc3ccc(C(=O)O)cc32)CC1 [Compound 422, 2-[(3-{6-[(4-cyano-2-fluorophenoxy)methyl]-5-fluoropyridin-2-yl}-2,5-dihydro-1H-pyrrol-1-yl)methyl]-1-{[l-(cyanomethyl)cyclopropyl]methyl}-1H-1,3-benzodiazole-6-carboxylic acid]"
8,< 50 nM,"CCn1cncc1Cn1c(Cc2ccc(Oc3cccc(COc4ccc(Cl)cc4F)n3)cc2F)nc2ccc(C(=O)O)cc21 [Compound 463, 2-{[4-({6-[(4-chloro-2-fluorophenoxy)methyl]pyridin-2-yl}oxy)-2-fluorophenyl]methyl}-1-[(1-ethyl-1H-imidazol-5-yl)methyl]-1H-1,3-benzodiazole-6-carboxylic acid]"
9,< 50 nM,"N#Cc1ccc(OCc2nccc(Oc3ccc(Cc4nc5ccc(C(=O)O)cc5n4C[C@@H]4CCO4)c(F)c3)n2)c(F)c1 [Compound 465, 2-{[4-({2-[(4-cyano-2-fluorophenoxy)methyl]pyrimidin-4-yl}oxy)-2-fluorophenyl]methyl}-1-{[(2S)-oxetan-2-yl]methyl}-1H-1,3-benzodiazole-6-carboxylic acid]"
